Measured values reported in US11963960B2 (Flash Therapeutics, LLC, priority 2020, dated 2024).

Biological target: N-terminally GST-tagged HCK (75-526) (Homo sapiens (Human), UniProt P08631)
Experiment: HCK Kinase Assay (ProFluor Src-Family Kinase Assay)
Assay type: biochemical
Conditions: HCK inhibitory activity, 50 μM ATP; read-out: HCK Activity
Procedure, shortened: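 ProFluor Src-family format: after the kinase reaction, protease solution was added for 60 min at room temperature (22-25° C), then stabilizer.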

Chain of N-terminally GST-tagged HCK (75-526) (P08631 75-526): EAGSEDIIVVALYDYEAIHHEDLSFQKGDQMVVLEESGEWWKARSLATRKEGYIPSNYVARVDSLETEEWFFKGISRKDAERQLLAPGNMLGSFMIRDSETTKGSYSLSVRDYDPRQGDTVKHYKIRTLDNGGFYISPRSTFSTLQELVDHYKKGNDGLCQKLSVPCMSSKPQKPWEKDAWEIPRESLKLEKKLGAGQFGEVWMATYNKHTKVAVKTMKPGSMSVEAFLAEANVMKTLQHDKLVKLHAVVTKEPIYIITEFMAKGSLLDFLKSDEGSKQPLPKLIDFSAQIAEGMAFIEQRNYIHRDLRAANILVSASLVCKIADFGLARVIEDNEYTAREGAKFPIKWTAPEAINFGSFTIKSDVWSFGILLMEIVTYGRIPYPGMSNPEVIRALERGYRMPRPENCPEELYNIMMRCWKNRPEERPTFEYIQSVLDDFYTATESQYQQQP

IC50 | Structure (SMILES)
< 0.05 µM | CC(C)(O)CN1CCN([C@H]2CC[C@H](n3cc(-c4ccc(Oc5ccccc5)cc4)c4c(N)ncnc43)CC2)CC1 [Example 89, 1-(4-((trans)-4-(4-amino-5-(4-phenoxyphenyl)-7H-pyrrolo[2,3-d]pyrimidin-7-yl)cyclohexyl)piperazin-1-yl)-2-methylpropan-2-ol]
< 0.05 µM | Nc1ncnc2c1c(-c1ccc(Oc3ccccc3)cc1)cn2[C@H]1CC[C@H](N2CCNCC2=O)CC1 [Example 90, 1-((trans)-4-(4-Amino-5-(4-phenoxyphenyl)-7H-pyrrolo[2,3-d]pyrimidin-7-yl)cyclohexyl)piperazin-2-one]
0.05 to 0.25 µM | Nc1ncnc2c1c(-c1ccc(Oc3ccccc3)cc1)cn2[C@H]1CC[C@@H](N2CCNCC2=O)CC1 [Example 91, 1-((cis)-4-(4-Amino-5-(4-phenoxyphenyl)-7H-pyrrolo[2,3-d]pyrimidin-7-yl)cyclohexyl)piperazin-2-one]
0.05 to 0.25 µM | Nc1ncnc2c1c(-c1ccc(Oc3ccccc3)cc1)cn2C1CCC2(CC1)OCC(N)CO2 (centres unmarked) [Example 92, 7-(3-Amino-1,5-dioxaspiro[5.5]undecan-9-yl)-5-(4-phenoxyphenyl)-7H-pyrrolo [2,3-d]pyrimidin-4-amine]
0.05 to 0.25 µM | Nc1ncnc2c1c(-c1ccc(Oc3ccccc3)cc1)cn2C1CCC2(CC1)NC(=O)N(c1ccncc1)C2=O (centres unmarked) [Example 93, 8-(4-Amino-5-(4-phenoxyphenyl)-7H-pyrrolo[2,3-d]pyrimidin-7-yl)-3-(pyridin-4-yl)-1,3-diazaspiro [4.5] decane-2,4-dione]
< 0.05 µM | NC(=O)C=C1CCC(n2cc(-c3ccc(Oc4ccccc4)cc3)c3c(N)ncnc32)CC1 (centres unmarked) [Example 94, 2-(4-(4-Amino-5-(4-phenoxyphenyl)-7H-pyrrolo[2,3-d]pyrimidin-7-yl)cyclohexylidene)acetamide]
0.25 to 10 µM | COC(=O)CC1(N)CCC(n2cc(-c3ccc(Oc4ccccc4)cc3)c3c(N)ncnc32)CC1 (centres unmarked) [Example 95, Methyl 2-(1-amino-4-(4-amino-5-(4-phenoxyphenyl)-7H-pyrrolo[2,3-d]pyrimidin-7-yl)cyclohexyl) acetate]
< 0.05 µM | NC(=O)CC1(N)CCC(n2cc(-c3ccc(Oc4ccccc4)cc3)c3c(N)ncnc32)CC1 (centres unmarked) [Example 96, 2-(1-Amino-4-(4-amino-5-(4-phenoxyphenyl)-7H-pyrrolo[2,3-d]pyrimidin-7-yl)cyclohexyl)acetamide]
< 0.05 µM | CNC(=O)C=C1CCC(n2cc(-c3ccc(Oc4ccccc4)cc3)c3c(N)ncnc32)CC1 (centres unmarked) [Example 97, 2-(4-(4-amino-5-(4-phenoxyphenyl)-7H-pyrrolo[2,3-d]pyrimidin-7-yl)cyclohexylidene)-N-methylacetamide]
< 0.05 µM | CNC(=O)CC1(NC)CCC(n2cc(-c3ccc(Oc4ccccc4)cc3)c3c(N)ncnc32)CC1 (centres unmarked) [Example 98, 2-(4-(4-amino-5-(4-phenoxyphenyl)-7H-pyrrolo[2,3-d]pyrimidin-7-yl)-1-(methylamino)cyclohexyl)-N-methylacetamide]
< 0.05 µM | CCOC(=O)C1CC12CCC(n1cc(-c3ccc(Oc4ccccc4)cc3)c3c(N)ncnc31)CC2 (centres unmarked) [Example 99, Ethyl 6-(4-amino-5-(4-phenoxyphenyl)-7H-pyrrolo[2,3-d]pyrimidin-7-yl)spiro[2.5]octane-1-carboxylate]
0.05 to 0.25 µM | CN1CCN(CC2(O)CCC(n3cc(-c4ccc(Oc5ccccc5)cc4)c4c(N)ncnc43)CC2)CC1 (centres unmarked) [Example 100, 4-(4-Amino-5-(4-phenoxyphenyl)-7H-pyrrolo[2,3-d]pyrimidin-7-yl)-1-((4-methylpiperazin-1-yl)methyl)cyclohexanol]
0.05 to 0.25 µM | Nc1ncnc2c1c(-c1ccc(Oc3ccccc3)cc1)cn2C1CCC(O)(Cn2ccnc2)CC1 (centres unmarked) [Example 101, 1-((1H-Imidazol-1-yl)methyl)-4-(4-amino-5-(4-phenoxyphenyl)-7H-pyrrolo[2,3-d]pyrimidin-7-yl)cyclohexanol]
< 0.05 µM | Nc1ncnc2c1c(-c1ccc(Oc3ccccc3)cc1)cn2C1CCC(O)(Cn2cnnn2)CC1 (centres unmarked) [Example 102, 1-((1H-Tetrazol-1-yl)methyl)-4-(4-amino-5-(4-phenoxyphenyl)-7H-pyrrolo[2,3-d]pyrimidin-7-yl)cyclohexanol]
< 0.05 µM | CN1CCN([C@H]2CC[C@H](n3cc(-c4ccc(Oc5ccccc5)cc4F)c4c(N)ncnc43)CC2)CC1 [Example 105, 5-(2-fluoro-4-phenoxyphenyl)-7-((trans)-4-(4-methylpiperazin-1-yl)cyclohexyl)-7H-pyrrolo[2,3-d]pyrimidin-4-amine]
< 0.05 µM | CN1CCN([C@H]2CC[C@H](n3cc(-c4ccc(Oc5ccccc5)cc4Cl)c4c(N)ncnc43)CC2)CC1 [Example 106, 5-(2-chloro-4-phenoxyphenyl)-7-((trans)-4-(4-methylpiperazin-1-yl)cyclohexyl)-7H-pyrrolo[2,3-d]pyrimidin-4-amine]

IC50 | Structure (SMILES)
< 0.05 µM | CN1CCN([C@H]2CC[C@H](n3nc(-c4c(F)cc(Oc5ccccc5)cc4F)c4c(N)ncnc43)CC2)CC1 [Example 107, 3-(2,6-difluoro-4-phenoxyphenyl)-1-((trans)-4-(4-methylpiperazin-1-yl)cyclohexyl)-1H-pyrazolo[3,4-d]pyrimidin-4-amine]
< 0.05 µM | CN1CCN([C@H]2CC[C@H](n3cc(-c4ccc(Oc5ccccc5F)cc4)c4c(N)ncnc43)CC2)CC1 [Example 108, 5-(4-(2-fluorophenoxy)phenyl)-7-((trans)-4-(4-methylpiperazin-1-yl)cyclohexyl)-7H-pyrrolo[2,3-d]pyrimidin-4-amine]
< 0.05 µM | CN1CCN([C@H]2CC[C@H](n3cc(-c4ccc(Oc5c(F)cccc5F)cc4)c4c(N)ncnc43)CC2)CC1 [Example 109, 5-(4-(2,6-difluorophenoxy)phenyl)-7-((trans)-4-(4-methylpiperazin-1-yl)cyclohexyl)-7H-pyrrolo[2,3-d]pyrimidin-4-amine]
< 0.05 µM | COc1cc(-c2nn([C@H]3CC[C@H](N4CCN(C)CC4)CC3)c3ncnc(N)c23)ccc1Oc1ccccc1 [Example 110]
0.05 to 0.25 µM | Cc1ccc(Oc2ccc(-c3cn([C@H]4CC[C@H](N5CCN(C)CC5)CC4)c4ncnc(N)c34)cc2)cc1 [Example 111, 7-((trans)-4-(4-methylpiperazin-1-yl)cyclohexyl)-5-(4-(p-tolyloxy)phenyl)-7H-pyrrolo[2,3-d]pyrimidin-4-amine]
< 0.05 µM | CN1CCN([C@H]2CC[C@H](n3cc(-c4ccc(Oc5ccccc5C#N)cc4)c4c(N)ncnc43)CC2)CC1 [Example 112, 2-(4-(4-amino-7-((trans)-4-(4-methylpiperazin-1-yl)cyclohexyl)-7H-pyrrolo[2,3-d]pyrimidin-5-yl)phenoxy)benzonitrile]
< 0.05 µM | CN1CCN([C@H]2CC[C@H](n3cc(-c4ccc(C(=O)c5ccccc5)cc4)c4c(N)ncnc43)CC2)CC1 [Example 113, (4-(4-amino-7-((trans)-4-(4-methylpiperazin-1-yl)cyclohexyl)-7H-pyrrolo[2,3-d]pyrimidin-5-yl)phenyl)(phenyl)methanone]
< 0.05 µM | CN1CCN([C@H]2CC[C@H](n3cc(-c4ccc(C(O)c5ccccc5)cc4)c4c(N)ncnc43)CC2)CC1 (stereo partly drawn) [Example 114, (4-(4-amino-7-((trans)-4-(4-methylpiperazin-1-yl)cyclohexyl)-7H-pyrrolo[2,3-d]pyrimidin-5-yl)phenyl)(phenyl)methanol]
< 0.05 µM | CN1CCN([C@H]2CC[C@H](n3cc(-c4ccc(Cc5ccccc5)cc4)c4c(N)ncnc43)CC2)CC1 [Example 115, 5-(4-benzylphenyl)-7-((trans)-4-(4-methylpiperazin-1-yl)cyclohexyl)-7H-pyrrolo[2,3-d]pyrimidin-4-amine]
< 0.05 µM | CN1CCN([C@H]2CC[C@H](n3cc(-c4ccc(Oc5cccnn5)cc4)c4c(N)ncnc43)CC2)CC1 [Example 116, 7-((trans)-4-(4-methylpiperazin-1-yl)cyclohexyl)-5-(4-(pyridazin-3-yloxy)phenyl)-7H-pyrrolo[2,3-d]pyrimidin-4-amine]
0.05 to 0.25 µM | CCc1cc(NC(=O)Nc2ccc(-c3cn([C@H]4CC[C@H](N5CCN(C)CC5)CC4)c4ncnc(N)c34)cc2)no1 [Example 117, 1-(4-(4-amino-7-((trans)-4-(4-methylpiperazin-1-yl)cyclohexyl)-7H-pyrrolo[2,3-d]pyrimidin-5-yl)phenyl)-3-(5-ethylisoxazol-3-yl)urea]
0.05 to 0.25 µM | CCc1cc(NC(=O)Nc2ccc(-c3cn([C@H]4CC[C@H](N5CCN(C)CC5)CC4)c4ncnc(N)c34)cc2)on1 [Example 118, 1-(4-(4-amino-7-((trans)-4-(4-methylpiperazin-1-yl)cyclohexyl)-7H-pyrrolo[2,3-d]pyrimidin-5-yl)phenyl)-3-(3-ethylisoxazol-5-yl)urea]
< 0.05 µM | CC(C)c1cc(NC(=O)Nc2ccc(-c3cn([C@H]4CC[C@H](N5CCN(C)CC5)CC4)c4ncnc(N)c34)cc2)no1 [Example 119, 1-(4-(4-amino-7-((trans)-4-(4-methylpiperazin-1-yl)cyclohexyl)-7H-pyrrolo[2,3-d]pyrimidin-5-yl)phenyl)-3-(5-isopropylisoxazol-3-yl)urea]
< 0.05 µM | CN1CCN([C@H]2CC[C@H](n3cc(-c4ccc(NC(=O)Nc5cc(C(C)(C)C)on5)cc4)c4c(N)ncnc43)CC2)CC1 [Example 120, 1-(4-(4-amino-7-((trans)-4-(4-methylpiperazin-1-yl)cyclohexyl)-7H-pyrrolo[2,3-d]pyrimidin-5-yl)phenyl)-3-(5-(tert-butyl)isoxazol-3-yl)urea]
< 0.05 µM | COc1cc(-c2nn([C@H]3CC[C@H](N4CCN(C)CC4)CC3)c3ncnc(N)c23)ccc1NC(=O)Nc1cc(C(C)(C)C)on1 [Example 123, 1-(4-(4-amino-1-((trans)-4-(4-methylpiperazin-1-yl)cyclohexyl)-1H-pyrazolo[3,4-d]pyrimidin-3-yl)-2-methoxyphenyl)-3-(5-(tert-butyl)isoxazol-3-yl)urea]
0.05 to 0.25 µM | CN1CCN([C@H]2CC[C@H](n3cc(-c4ccc(CC(=O)Nc5cc(C(C)(C)C)on5)cc4)c4c(N)ncnc43)CC2)CC1 [Example 124, 2-(4-(4-amino-7-((trans)-4-(4-methylpiperazin-1-yl)cyclohexyl)-7H-pyrrolo[2,3-d]pyrimidin-5-yl)phenyl)-N-(5-(tert-butyl)isoxazol-3-yl)acetamide]
